From US20240208994A1, “PLASMA KALLIKREIN INHIBITORS” (Merck Sharp & Dohme LLC, priority 2021, published 2024) come the findings set out here.

Test [1] has as its target human factor XIa (Homo sapiens, UniProt P03951). As to the kind of experiment: Factor XIa Assay. The test is classed as biochemical. The conditions noted are these: human factor XIa 0.04 nM, 30 min pre-incubation at 25° C., substrate GPR-AFC, pH 7.4, 60 min incubation; read-out: FXIa IC50. How it is done:
(§1) The effectiveness of a compound of the present invention as an inhibitor of Coagulation factor XIa can be determined using a relevant purified serine protease, and an appropriate synthetic substrate. The rate of hydrolysis of the chromogenic or fluorogenic substrate by the relevant serine protease was measured both in the absence and presence of compounds of the present invention. Assays were conducted at rt or at 37° C. […] A decrease in the rate of fluorescence change in the presence of inhibitor is indicative of enzyme inhibition. Such methods are known to one skilled in the art. The results of this assay are expressed as the half-maximal inhibitory concentrations (IC50), or the inhibitory constant, Ki.
Compounds were pre-incubated for 30 min at 25° C. with human (0.04 nM) factor XIa in 50 mM HEPES buffer with 150 mM sodium chloride, 5 mM calcium chloride, 0.1% PEG 8000, pH 7.4. factor XIa enzymatic activity was determined by addition of the substrate glycine-proline-arginine-7-amido-4-trifluoromethylcoumarin (GPR-AFC) and measurement of the fluorescence at 400/505 nm after a 60 min incubation at 25° C. The % inhibition for each data point was calculated from the data and analyzed using the log (inhibitor) vs. response four parameters equation to determine the half-maximal inhibitory concentrations (IC50). The IC50 were converted to equilibrium inhibitory constants (Ki) using the Cheng-Prusoff equation.

Test [2] addresses T1, Human plasma kallikrein (Homo sapiens, UniProt P03952).
T1 construct: yields a heavy chain (371 amino acids) and a light chain (248 amino acids); purchased Enzyme Research Laboratories
The test is described as follows: Plasma Kallikrein Assay. The test is classed as biochemical. The conditions noted are these: purified Human plasma kallikrein 0.5 nM, substrate Acetyl-K-P-R-AFC, HEPES pH 7.4, fluorescence 405 Ex/510 Em; read-out: PKal IC50. How it is done: as §1, with “plasma kallikrein” for “Coagulation factor XIa”
Plasma kallikrein determinations were made in 50 mM HEPES buffer at pH 7.4 containing 150 mM NaCl, 5 mM CaCl2), and 0.1% PEG 8000 (polyethylene glycol: Fisher Scientific). Determinations were made using purified Human plasma kallikrein at a final concentration of 0.5 nM (Enzyme Research Laboratories) and the synthetic substrate, Acetyl-K-P-R-AFC (Sigma #C6608) at a concentration of […].
Activity assays were performed by diluting a stock solution of substrate at least tenfold to a final concentration ≤0.2 Km into a solution containing enzyme or enzyme equilibrated with inhibitor. Times required to achieve equilibration between enzyme and inhibitor were determined in control experiments. The reactions were performed under linear progress curve conditions and fluorescence increase measured at 405 Ex/510 Em nm. Values were converted to percent inhibition of the control reaction (after subtracting 100% Inhibition value). IC50 was determined by inflection point from a four parameter logistic curve fit. Ki was calculated using the Cheng Prusoff equation, Ki=IC50/(1+([S]/Km)).

Chain of human factor XIa (P03951 388-625 limits assumed): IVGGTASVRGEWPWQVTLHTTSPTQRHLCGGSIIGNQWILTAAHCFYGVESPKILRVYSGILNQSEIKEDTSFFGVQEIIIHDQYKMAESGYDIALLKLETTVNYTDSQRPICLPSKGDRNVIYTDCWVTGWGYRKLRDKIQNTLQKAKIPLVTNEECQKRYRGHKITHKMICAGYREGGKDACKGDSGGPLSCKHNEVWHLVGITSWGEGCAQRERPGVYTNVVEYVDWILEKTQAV
Chain of human factor XIa (P03951 19-387 partner limits assumed): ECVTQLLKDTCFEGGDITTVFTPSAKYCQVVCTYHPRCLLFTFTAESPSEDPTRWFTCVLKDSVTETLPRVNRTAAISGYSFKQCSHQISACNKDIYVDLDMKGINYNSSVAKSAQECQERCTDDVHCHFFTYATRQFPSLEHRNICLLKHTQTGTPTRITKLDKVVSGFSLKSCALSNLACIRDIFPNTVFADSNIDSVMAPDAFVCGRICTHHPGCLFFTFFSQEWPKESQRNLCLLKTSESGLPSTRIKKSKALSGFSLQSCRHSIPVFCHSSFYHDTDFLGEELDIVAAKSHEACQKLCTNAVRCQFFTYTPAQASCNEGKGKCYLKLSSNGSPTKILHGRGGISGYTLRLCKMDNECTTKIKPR
T1 sequence (P03952 391-638 limits assumed): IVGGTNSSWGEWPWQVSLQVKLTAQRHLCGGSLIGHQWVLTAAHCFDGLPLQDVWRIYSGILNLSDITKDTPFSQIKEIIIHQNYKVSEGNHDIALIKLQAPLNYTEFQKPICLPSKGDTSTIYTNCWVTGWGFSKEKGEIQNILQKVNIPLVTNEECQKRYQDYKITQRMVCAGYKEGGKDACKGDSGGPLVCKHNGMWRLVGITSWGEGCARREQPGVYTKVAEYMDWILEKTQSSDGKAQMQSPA
T1 sequence (P03952 20-390 partner limits assumed): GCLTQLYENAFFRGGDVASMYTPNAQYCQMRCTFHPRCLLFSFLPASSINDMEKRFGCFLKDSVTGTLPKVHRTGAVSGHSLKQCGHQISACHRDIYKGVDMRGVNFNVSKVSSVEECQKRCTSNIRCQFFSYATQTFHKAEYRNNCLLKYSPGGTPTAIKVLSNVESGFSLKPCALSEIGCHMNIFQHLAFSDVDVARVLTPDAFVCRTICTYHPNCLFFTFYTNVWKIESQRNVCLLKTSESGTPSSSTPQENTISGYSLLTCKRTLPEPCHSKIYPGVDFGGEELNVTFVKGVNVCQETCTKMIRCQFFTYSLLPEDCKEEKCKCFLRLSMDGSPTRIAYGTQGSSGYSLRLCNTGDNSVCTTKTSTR

With `Nc1cc(-c2ccco2)nn1CC(=O)N1CC[C@@]2(C1)OC(=O)Nc1ccc(Cl)c(F)c12` [Example 40, (R)-1′-(2-(5-Amino-3-(furan-2-y1)-1H-pyrazol-1-yl)acetyl)-6-chloro-5-fluorospiro[benzo[d] [1,3]oxazine-4,3′-pyrrolidin]-2(1H)-one], the results for the IC50 in test [1] and in test [2] were 225 nM and 16.2 nM, respectively.
For `Nc1cc(-c2nccs2)nn1CC(=O)N1CC[C@@]2(C1)OC(=O)Nc1ccc(Cl)c(F)c12` [Example 41, (R)-1′-(2-(5-Amino-3-(thiazol-2-y1)-1H-pyrazol-1-yl)acetyl)-6-chloro-5-fluorospiro[benzo[d] [1,3]oxazine-4,3′-pyrrolidin]-2(1H)-one], the IC50 (in general, the concentration needed to halve the response being measured) in test [1] is 286 nM; in test [2] it was 18.1 nM.
In the same order, the values of `Cc1cccc(-c2cc(N)n(CC(=O)N3CC[C@@]4(C3)OC(=O)Nc3ccc(Cl)c(F)c34)n2)c1` [Example 42, (R)-1′-(2-(5-Amino-3-(m-toly1)-1H-pyrazol-1-yl)acetyl)-6-chloro-5-fluorospiro[benzo[d][1,3]oxazine-4,3′-pyrrolidin]-2(1H)-one] are 611 nM and 15.1 nM.
In the case of `Nc1cc(-c2ccccc2Cl)nn1CC(=O)N1CC[C@@]2(C1)OC(=O)Nc1ccc(Cl)c(F)c12` [Example 43, (R)-1′-(2-(5-Amino-3-(2-chlorophenyl)-1H-pyrazol-1-yl)acetyl)-6-chloro-5-fluorospiro[benzo[d][1,3]oxazine-4,3′-pyrrolidin]-2(1H)-one], the IC50 worked out at 187 nM in test [1] and 3.2 nM in test [2].
With `Nc1cc(-c2cncc(Br)c2)nn1CC(=O)N1CC[C@@]2(C1)OC(=O)Nc1ccc(Cl)c(F)c12` [Example 44, (R)-1′-(2-(5-Amino-3-(5-bromopyridin-3-y1)-1H-pyrazol-1-yl)acetyl)-6-chloro-5-fluorospiro[benzo[d][1,3]oxazine-4,3'-pyrrolidin]-2(1H)-one], the IC50 in test [1] was determined as 389 nM; in test [2], 11.2 nM.
Take `Cc1ccc(-c2cc(N)n(CC(=O)N3CC[C@@]4(C3)OC(=O)Nc3ccc(Cl)c(F)c34)n2)n1C` [Example 45, (R)-1′-(2-(5-Amino-3-(1,5-dimethyl-1H-pyrrol-2-y1)-1H-pyrazol-1-yl)acetyl)-6-chloro-5-fluorospiro[benzo[d][1,3]oxazine-4,3′-pyrrolidin]-2(1H)-one]: the IC50 in test [1] worked out at 2760 nM; in test [2], 40.3 nM.
The corresponding values for `Nc1cc(-c2ccc(F)cc2F)nn1CC(=O)N1CC[C@@]2(C1)OC(=O)Nc1ccc(Cl)c(F)c12` [Example 46, (R)-1′-(2-(5-Amino-3-(2,4-difluorophenyl)-1H-pyrazol-1-yl)acetyl)-6-chloro-5-fluorospiro[benzo[d][1,3]oxazine-4,3′-pyrrolidin]-2(1H)-one] are 263 nM and 5 nM.
In the case of `Nc1cc(-c2ccc(F)c(F)c2)nn1CC(=O)N1CC[C@@]2(C1)OC(=O)Nc1ccc(Cl)c(F)c12` [Example 47, (R)-1′-(2-(5-Amino-3-(3,4-difluorophenyl)-1H-pyrazol-1-yl)acetyl)-6-chloro-5-fluorospiro[benzo[d][1,3]oxazine-4,3′-pyrrolidin]-2(1H)-one], the IC50 is 739 nM in test [1] and 14.3 nM in test [2].
As for `Nc1cc(-c2cc3ccccc3o2)nn1CC(=O)N1CC[C@@]2(C1)OC(=O)Nc1ccc(Cl)c(F)c12` [Example 48, (R)-1′-(2-(5-Amino-3-(benzofuran-2-y1)-1H-pyrazol-1-yl)acetyl)-6-chloro-5-fluorospiro[benzo[d][1,3]oxazine-4,3′-pyrrolidin]-2(1H)-one], the IC50 in test [1] came to 1400 nM; in test [2], 7.8 nM.
Regarding `Cn1ncc(-c2cc(N)n(CC(=O)N3CC[C@@]4(C3)OC(=O)Nc3ccc(Cl)c(F)c34)n2)c1C(F)(F)F` [Example 49, (R)-1′-(2-(5-Amino-1′-methyl-5′-(trifluoromethyl)-1H,1′H-[3,4′-bipyrazol]-1-yl)acetyl)-6-chloro-5-fluorospiro[benzo[d][1,3]oxazine-4,3′-pyrrolidin]-2(1H)-one], the figures for the IC50 in test [1] and in test [2] were 184 nM and 1.4 nM, respectively.
For `Nc1cc(-c2ccccc2C(F)(F)F)nn1CC(=O)N1CC[C@@]2(C1)OC(=O)Nc1ccc(Cl)c(F)c12` [Example 50, (R)-1′-(2-(5-Amino-3-(2-(trifluoromethyl)phenyl)-1H-pyrazol-1-yl)acetyl)-6-chloro-5-fluorospiro[benzo[d][1,3]oxazine-4,3′-pyrrolidin]-2(1H)-one], the IC50 in test [1] was determined as 422 nM; in test [2] it was 5.4 nM.
Turning to `COc1cccc(OC)c1-c1cc(N)n(CC(=O)N2CC[C@@]3(C2)OC(=O)Nc2ccc(Cl)c(F)c23)n1` [Example 51, (R)-1′-(2-(5-Amino-3-(2,6-dimethoxyphenyl)-1H-pyrazol-1-yl)acetyl)-6-chloro-5-fluorospiro[benzo[d][1,3]oxazine-4,3′-pyrrolidin]-2(1H)-one], the IC50 in test [1] came out at 1770 nM; in test [2] it was 23.5 nM.
In the same order, the values of `Nc1cc(C2CCCCC2)nn1CC(=O)N1CC[C@@]2(C1)OC(=O)Nc1ccc(Cl)c(F)c12` [Example 52, (R)-1′-(2-(5-Amino-3-cyclohexy1-1H-pyrazol-1-yl)acetyl)-6-chloro-5-fluorospiro[benzo[d][1,3]oxazine-4,3′-pyrrolidin]-2(1H)-one] are 426 nM and 20.7 nM.
Regarding `CC1(C)C(c2cc(N)n(CC(=O)N3CC[C@@]4(C3)OC(=O)Nc3ccc(Cl)c(F)c34)n2)C1(C)C` [Example 53, (R)-1′-(2-(5-Amino-3-(2,2,3,3-tetramethylcyclopropyl)-1H-pyrazol-1-yl)acetyl)-6-chloro-5-fluorospiro[benzo[d][1,3]oxazine-4,3′-pyrrolidin]-2(1H)-one], the IC50 amounted to 320 nM in test [1] and 11.5 nM in test [2].
As for `Cc1ccccc1-c1cc(N)n(CC(=O)N2CC[C@@]3(C2)OC(=O)Nc2ccc(Cl)c(F)c23)n1` [Example 54, (R)-1′-(2-(5-Amino-3-(o-tolyl)-1H-pyrazol-1-yl)acetyl)-6-chloro-5-fluorospiro[benzo[d][1,3]oxazine-4,3′-pyrrolidin]-2(1H)-one], the IC50 came to 289 nM in test [1] and 5.1 nM in test [2].
For `Nc1cc(-c2ccccc2OC(F)(F)F)nn1CC(=O)N1CC[C@@]2(C1)OC(=O)Nc1ccc(Cl)c(F)c12` [Example 55, (R)-1′-(2-(5-Amino-3-(2-(trifluoromethoxy)phenyl)-1H-pyrazol-1-yl)acetyl)-6-chloro-5-fluorospiro[benzo[d][1,3]oxazine-4,3′-pyrrolidin]-2(1H)-one], the values for the IC50 in test [1] and in test [2] were 287 nM and 2.5 nM, respectively.
Regarding `Nc1cc(-c2ccccc2F)nn1CC(=O)N1CC[C@@]2(C1)OC(=O)Nc1ccc(Cl)c(F)c12` [Example 56, (R)-1′-(2-(5-Amino-3-(2-fluorophenyl)-1H-pyrazol-1-yl)acetyl)-6-chloro-5-fluorospiro[benzo[d][1,3]oxazine-4,3′-pyrrolidin]-2(1H)-one], the IC50 in test [1] turned out to be 165 nM; in test [2], 4.6 nM.
With `Nc1cc(-c2ccccc2Br)nn1CC(=O)N1CC[C@@]2(C1)OC(=O)Nc1ccc(Cl)c(F)c12` [Example 57, (R)-1′-(2-(5-Amino-3-(2-bromophenyl)-1H-pyrazol-1-yl)acetyl)-6-chloro-5-fluorospiro[benzo[d][1,3]oxazine-4,3′-pyrrolidin]-2(1H)-one], the IC50 in test [1] was 190 nM; in test [2], 2.5 nM.
Turning to `Nc1cc(-c2ccccc2I)nn1CC(=O)N1CC[C@@]2(C1)OC(=O)Nc1ccc(Cl)c(F)c12` [Example 58, (R)-1′-(2-(5-Amino-3-(2-iodophenyl)-1H-pyrazol-1-yl)acetyl)-6-chloro-5-fluorospiro[benzo[d][1,3]oxazine-4,3′-pyrrolidin]-2(1H)-one], the IC50 in test [1] was found to be 430 nM; in test [2], 5.7 nM.
